The numbers were not newly measured in patent US20190350197A1, “Composition comprising polyurethane microcapsules comprising cinmethylin” (BASF Agro B.V., priority 2016, published 2019), which cites them from elsewhere.

For this series the following is noted: at 20° C.

Take “(±)-2-exo-(2-methylbenzyloxy)-1-methyl-4-isopropyl-7-oxabicyclo[2.2.1]heptane [Cinmethylin]”: the solubility in water is 0.063 g-L^−1.
